Structures can show the parent of a compound that is named as a salt.
Legend:
[1] = target: T1, human SERT (HEK293 membranes) (Homo sapiens, UniProt P31645); test: Human SERT 3H-citalopram binding; conditions: HEK293 membranes expressing human SERT, rt 1 h
T1 construct: expressed in transfected cells; host or cells: HEK293
Protocol: Homogenized HEK293 (Human Embryonic Kidney) membranes expressing the human SERT were incubated with ^3H-citalopram (SERT) at rt for 1 h in 50 mM Tris, 120 mM NaCl, 5 mM KCl (pH 7.4). Nonspecific binding was determined in the presence of 10 μM fluoxetine for the SERT. The membranes were washed and the radioactivity was counted as above. Calculations for Ki at the SERT were based on a Kd value for ^3H-citalopram and a ligand concentration of 3.1 nM.

Rat brain SERT = target: T2, Rat brain SERT (Rattus norvegicus, UniProt P31652); test: Rat brain SERT [3H]-citalopram binding; conditions: rat brain membranes, 0.6 nM [3H]-Citalopram, 60 min at 25° C.
T2 construct: A rat brain without cerebellum (Zivic Laboratories, Inc.-Pittsburgh, Pa.) was homogenized; tissue Zivic Laboratories, Inc; host or cells: rat brain without cerebellum, membrane preparation
T2 sequence (P31652 whole entry): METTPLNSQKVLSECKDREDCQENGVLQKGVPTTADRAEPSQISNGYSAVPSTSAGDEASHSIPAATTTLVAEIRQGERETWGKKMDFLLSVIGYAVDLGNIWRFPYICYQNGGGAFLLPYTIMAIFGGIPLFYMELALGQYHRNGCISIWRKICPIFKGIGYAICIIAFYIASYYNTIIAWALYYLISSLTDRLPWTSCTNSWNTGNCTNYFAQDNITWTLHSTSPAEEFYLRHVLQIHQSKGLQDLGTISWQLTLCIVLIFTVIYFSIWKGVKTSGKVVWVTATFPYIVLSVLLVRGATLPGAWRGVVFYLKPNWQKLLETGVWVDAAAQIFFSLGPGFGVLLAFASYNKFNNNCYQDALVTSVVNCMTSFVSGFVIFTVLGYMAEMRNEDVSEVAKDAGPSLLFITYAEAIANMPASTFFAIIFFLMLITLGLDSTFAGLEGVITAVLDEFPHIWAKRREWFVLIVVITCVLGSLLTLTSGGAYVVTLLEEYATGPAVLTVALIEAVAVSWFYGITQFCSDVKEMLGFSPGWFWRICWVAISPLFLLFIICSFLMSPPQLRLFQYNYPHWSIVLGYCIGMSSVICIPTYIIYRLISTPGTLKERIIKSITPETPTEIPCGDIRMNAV
Protocol: A rat brain without cerebellum (Zivic Laboratories, Inc.-Pittsburgh, Pa.) was homogenized in a 52.6 mM Tris pH 8/126.4 mM NaCl/5.26 mM KCl mixture and centrifuged at 1,000 rpm for 5 min. The supernatant was removed and re-centrifuged at 15,000 rpm for 30 min. Pellets were re-homogenized in a 52.6 mM Tris pH8/126.4 mM NaCl/5.26 mM KCl mixture. Membranes were incubated with 0.6 nM [^3H]-Citalopram plus/minus test compounds for 60 min at 25° C. and harvested by rapid filtration over GF/C glass fiber filters (pretreated with 0.3% polyethylenimine) followed by four washes with ice-cold buffer. Nonspecific binding was defined in the presence of 100 μM fluoxetine. IC50 values were determined by a single site curve-fitting program (GraphPad, San Diego, Calif.) and converted to Ki values based on a [^3H]-Citalopram Kd of 0.6 nM and a ligand concentration of 0.6 nM.

[2] = target: T3, cloned human H3 receptors, stably expressed in SK-N-MC cells (Homo sapiens, UniProt Q9Y5N1); test: H3 receptor binding
T3 construct: expressed in transfected cells
T3 sequence (Q9Y5N1 whole entry): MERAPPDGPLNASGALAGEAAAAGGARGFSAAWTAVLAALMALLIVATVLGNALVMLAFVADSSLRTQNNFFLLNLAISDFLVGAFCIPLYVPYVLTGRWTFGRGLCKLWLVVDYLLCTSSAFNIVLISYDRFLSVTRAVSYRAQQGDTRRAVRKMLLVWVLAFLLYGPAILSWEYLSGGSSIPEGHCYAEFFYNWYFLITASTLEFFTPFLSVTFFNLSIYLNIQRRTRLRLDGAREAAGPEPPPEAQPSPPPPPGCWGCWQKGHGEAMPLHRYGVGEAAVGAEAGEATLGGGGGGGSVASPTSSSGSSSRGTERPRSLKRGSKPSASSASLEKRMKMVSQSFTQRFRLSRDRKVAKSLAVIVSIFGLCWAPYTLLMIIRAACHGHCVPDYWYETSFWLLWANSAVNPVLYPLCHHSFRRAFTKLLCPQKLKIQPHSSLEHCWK
Protocol: Binding of compounds to the cloned human H3 receptors, stably expressed in SK-N-MC cells, was performed as described by Barbier, A. J. et al. (Br. J. Pharmacol. 2004, 143(5), 649-661).

T1 sequence (P31645 whole entry): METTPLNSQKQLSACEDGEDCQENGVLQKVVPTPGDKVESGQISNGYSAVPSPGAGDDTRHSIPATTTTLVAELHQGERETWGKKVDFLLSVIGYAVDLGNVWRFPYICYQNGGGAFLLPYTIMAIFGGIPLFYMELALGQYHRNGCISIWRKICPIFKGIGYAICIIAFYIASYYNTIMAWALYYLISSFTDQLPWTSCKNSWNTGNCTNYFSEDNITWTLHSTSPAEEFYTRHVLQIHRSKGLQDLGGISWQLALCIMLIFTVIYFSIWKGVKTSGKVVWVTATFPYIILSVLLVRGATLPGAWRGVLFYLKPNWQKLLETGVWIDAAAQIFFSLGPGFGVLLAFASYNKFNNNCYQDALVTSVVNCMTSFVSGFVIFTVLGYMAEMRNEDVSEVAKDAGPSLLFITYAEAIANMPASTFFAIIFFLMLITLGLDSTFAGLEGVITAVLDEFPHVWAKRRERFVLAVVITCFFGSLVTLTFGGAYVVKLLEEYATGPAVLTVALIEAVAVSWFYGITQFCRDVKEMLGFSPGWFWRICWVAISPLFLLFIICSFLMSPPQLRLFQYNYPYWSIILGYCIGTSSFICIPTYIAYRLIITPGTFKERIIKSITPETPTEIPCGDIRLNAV

## CSc1ccc(C2CN(C)Cc3cc(Oc4ccc(CN5CCCCC5)cc4)ccc32)cc1 (stereo not shown) [Example 9, 2-Methyl-4-(4-methylsulfanyl-phenyl)-7-(4-piperidin-1-ylmethyl-phenoxy)-1,2,3,4-tetrahydro-isoquinoline]
[1]
  Ki: 3.8 nM
Rat brain SERT
  Ki: 4.3 nM
[2]
  Ki: 22.7 nM

## CSc1ccc(C2CN(C)Cc3cc(Oc4ccc(CN5CCC(F)CC5)cn4)ccc32)cc1 (stereo not shown) [Example 12, 7-[5-(4-Fluoro-piperidin-1-ylmethyl)-pyridin-2-yloxy]-2-methyl-4-(4-methylsulfanyl-phenyl)-1,2,3,4-tetrahydro-isoquinoline]
[1]
  Ki: 6.5 nM
Rat brain SERT
  Ki: 14.3 nM
[2]
  Ki: 110 nM

## CSc1ccc(C2CN(C)Cc3cc(Oc4nc(CN5CCCCC5)cs4)ccc32)cc1 (stereo not shown) [Example 6, 2-Methyl-4-(4-methylsulfanyl-phenyl)-7-(4-piperidin-1-ylmethyl-thiazol-2-yloxy)-1,2,3,4-tetrahydro-isoquinoline]
[1]
  Ki: 4.3 nM
Rat brain SERT
  Ki: 5.2 nM
[2]
  Ki: 20.7 nM

## CSc1ccc(C2CN(C)Cc3cccc(Oc4cccc(CN5CCCCC5)c4)c32)cc1 (stereo not shown) [Example 1B, 2-Methyl-4-(4-methylsulfanyl-phenyl)-5-(3-piperidin-1-ylmethyl-phenoxy)-1,2,3,4-tetrahydro-isoquinoline Trifluoroacetic Acid Salt]
[1]
  Ki: 616 nM
Rat brain SERT
  Ki: 403 nM
[2]
  Ki: 253 nM

## CSc1ccc(C2CN(C)Cc3cc(Oc4nc(CN5CCOCC5)cs4)ccc32)cc1 (stereo not shown) [Example 11, 2-Methyl-4-(4-methylsulfanyl-phenyl)-7-(4-morpholin-4-ylmethyl-thiazol-2-yloxy)-1,2,3,4-tetrahydro-isoquinoline]
[2]
  Ki: 201 nM

## CSc1ccc(C2CN(C)Cc3cc(Oc4ccnc(CN5CCCCC5)c4)ccc32)cc1 (stereo not shown) [Example 3A, 2-2-Methyl-4-(4-methylsulfanyl-phenyl)-7-(2-piperidin-1-ylmethyl-pyridin-4-yloxy)-1,2,3,4-tetrahydro-isoquinoline Trifluoroacetic Acid Salt]
[1]
  Ki: 10.4 nM
Rat brain SERT
  Ki: 25.7 nM
[2]
  Ki: 323 nM

## CSc1ccc(C2CN(C)Cc3cccc(Oc4cncc(CN5CCCCC5)c4)c32)cc1 (stereo not shown) [Example 4B, 2-Methyl-4-(4-methylsulfanyl-phenyl)-5-(5-piperidin-1-ylmethyl-pyridin-3-yloxy)-1,2,3,4-tetrahydro-isoquinoline Trifluoroacetic Acid Salt]
[1]
  Ki: 262 nM
Rat brain SERT
  Ki: 174 nM
[2]
  Ki: 511 nM

## CSc1ccc(C2CN(C)Cc3cccc(Oc4ccnc(CN5CCCCC5)c4)c32)cc1 (stereo not shown) [Example 3B, 2-Methyl-4-(4-methylsulfanyl-phenyl)-5-(2-piperidin-1-ylmethyl-pyridin-4-yloxy)-1,2,3,4-tetrahydro-isoquinoline Trifluoroacetic Acid Salt]
[1]
  Ki: 157 nM
Rat brain SERT
  Ki: 182 nM
[2]
  Ki: 265 nM

## CSc1ccc(C2CN(C)Cc3cc(Oc4ccc(CN5CCCCC5)cn4)ccc32)cc1 (stereo not shown) [Example 7, 2-Methyl-4-(4-methylsulfanyl-phenyl)-7-(5-piperidin-1-ylmethyl-pyridin-2-yloxy)-1,2,3,4-tetrahydro-isoquinoline]
[1]
  Ki: 2.3 nM
Rat brain SERT
  Ki: 4.5 nM
[2]
  Ki: 8.2 nM

## CSc1ccc(C2CN(C)Cc3cc(Oc4cc(CN5CCCCC5)ccn4)ccc32)cc1 (stereo not shown) [Example 5, 2-Methyl-4-(4-methylsulfanyl-phenyl)-7-(4-piperidin-1-ylmethyl-pyridin-2-yloxy)-1,2,3,4-tetrahydro-isoquinoline]
[1]
  Ki: 2.4 nM
Rat brain SERT
  Ki: 8.7 nM
[2]
  Ki: 34.3 nM

## CSc1ccc(C2CN(C)Cc3cc(Oc4ccc(CN5CCCCC5)nc4)ccc32)cc1 (stereo not shown) [Example 8, 2-Methyl-4-(4-methylsulfanyl-phenyl)-7-(6-piperidin-1-ylmethyl-pyridin-3-yloxy)-1,2,3,4-tetrahydro-isoquinoline]
[1]
  Ki: 8 nM
Rat brain SERT
  Ki: 7.5 nM
[2]
  Ki: 24.3 nM

## CSc1ccc(C2CN(C)Cc3cc(Oc4ncc(CN5CCCCC5)s4)ccc32)cc1 (stereo not shown) [Example 13, 2-Methyl-4-(4-methylsulfanyl-phenyl)-7-(5-piperidin-1-ylmethyl-thiazol-2-yloxy)-1,2,3,4-tetrahydro-isoquinoline]
[1]
  Ki: 3.2 nM
Rat brain SERT
  Ki: 4 nM
[2]
  Ki: 20.7 nM

## CSc1ccc(C2CN(C)Cc3cc(Oc4ccc(CN5CCOCC5)cn4)ccc32)cc1 (stereo not shown) [Example 10, 2-Methyl-4-(4-methylsulfanyl-phenyl)-7-(5-morpholin-4-ylmethyl-pyridin-2-yloxy)-1,2,3,4-tetrahydro-isoquinoline]
[1]
  Ki: 7.9 nM
Rat brain SERT
  Ki: 11 nM
[2]
  Ki: 260 nM

## CSc1ccc(C2CN(C)Cc3cc(Oc4cccc(CN5CCCCC5)c4)ccc32)cc1 (stereo not shown) [Example 1A, 2-Methyl-4-(4-methylsulfanyl-phenyl)-7-(3-piperidin-1-ylmethyl-phenoxy)-1,2,3,4-tetrahydro-isoquinoline trifluoroacetic acid salt]
[1]
  Ki: 17.7 nM
Rat brain SERT
  Ki: 11.7 nM
[2]
  Ki: 18 nM

## CSc1ccc(C2CN(C)Cc3cc(Oc4cccc(CN5CCCCC5)n4)ccc32)cc1 (stereo not shown) [Example 2, 2-Methyl-4-(4-methylsulfanyl-phenyl)-7-(6-piperidin-1-ylmethyl-pyridin-2-yloxy)-1,2,3,4-tetrahydro-isoquinoline Trifluoroacetic Acid Salt]
[1]
  Ki: 22 nM
Rat brain SERT
  Ki: 11.7 nM
[2]
  Ki: 51 nM

From patent US7846930B2, “Diaryl-substituted tetrahydroisoquinolines as histamine H3 receptor and serotonin transporter modulators” (Janssen Pharmaceutica NV, priority 2007, dated 2010)
